# In paper PMC8982266 (Journal of medicinal chemistry, 2015):
# Columns and labels:
# Enterococcus faecium = test: MIC micro broth dilution assay; format: cell-based; conditions: E. faecium; purified compounds
# Staphylococcus aureus = test: MIC micro broth dilution assay; format: cell-based; conditions: S. aureus; purified compounds
# Klebsiella pneumoniae = test: MIC micro broth dilution assay; format: cell-based; conditions: for MIC: K. pneumoniae, purified compounds; for concentration inhibiting growth of 90% of isolates: panel of clinical K. pneumoniae isolates
# Acinetobacter baumannii = test: MIC micro broth dilution assay; format: cell-based; conditions: A. baumannii; purified compounds
# Pseudomonas aeruginosa = test: MIC micro broth dilution assay; format: cell-based; conditions: for MIC: P. aeruginosa, purified compounds; for concentration inhibiting growth of 90% of isolates: panel of clinical P. aeruginosa isolates
# E. cloacae [1] = test: MIC micro broth dilution assay; format: cell-based; conditions: for MIC: E. cloacae, purified compounds; for concentration inhibiting growth of 90% of isolates: panel of clinical E. cloacae isolates
# [2] = test system: Staphylococcus aureus biofilm; test: Minimum biofilm eradication concentration; format: cell-based; conditions: S. aureus biofilm; purified compounds
# [3] = test system: Klebsiella pneumoniae biofilm; test: Minimum biofilm eradication concentration; format: cell-based; conditions: K. pneumoniae biofilm; purified compounds
# [4] = test system: Acinetobacter baumannii biofilm; test: Minimum biofilm eradication concentration; format: cell-based; conditions: A. baumannii biofilm; purified compounds
# [5] = test system: Pseudomonas aeruginosa biofilm; test: Minimum biofilm eradication concentration; format: cell-based; conditions: P. aeruginosa biofilm; purified compounds
# E. cloacae biofilm = test: Minimum biofilm eradication concentration; format: cell-based; conditions: purified compounds
# human A549 cells = test: Cytotoxicity MTT assay; format: cell-based; conditions: for IC50: read-out: IC50 A549, toxicity towards human A549 cells, MTT, 48 hours
# ESKAPE pathogens = test: MIC micro broth dilution assay, all six species together; format: cell-based
# S. aureus = test: Serial passage resistance assay; format: cell-based, Staphylococcus aureus; conditions: 8 passages, concentration doubled each day
# K. pneumoniae = test: Serial passage resistance assay; format: cell-based, Klebsiella pneumoniae; conditions: 8 passages
# A. baumannii = test: Serial passage resistance assay; format: cell-based, Acinetobacter baumannii; conditions: 8 passages
# E. cloacae [6] = format: cell-based; conditions: 8 passages
# P. aeruginosa = format: cell-based, Pseudomonas aeruginosa; conditions: 8 passages
# [7] = test system: Staphylococcus aureus (USA300 strain FPR3757); test: Murine model of lethal peritonitis; format: in vivo; conditions: 2xMIC, I.M., 1h post-infection; six mice per group
# [8] = test system: K. pneumoniae strain 1441; test: Growth with efflux inhibitor reserpine; format: cell-based, Klebsiella pneumoniae; conditions: with 100 μM of reserpine
# MRSA cells = test: Time kill assay; format: cell-based, Staphylococcus aureus
# [9] = test system: human red blood cells (hRBCs)
# [10] = test system: P. aeruginosa clinical isolates; test: Growth with efflux inhibitor reserpine; format: cell-based, Pseudomonas aeruginosa; conditions: P. aeruginosa isolate 1420
# [11] = test system: Enterococcus faecium biofilm; test: Minimum biofilm eradication concentration; format: cell-based; conditions: E. faecium biofilm; purified compounds
# E. cloacae strain 1446 = test: Growth with efflux inhibitor reserpine; format: cell-based; conditions: with 100 μM of reserpine
Molecule,MIC (Enterococcus faecium) [µM],MIC (Staphylococcus aureus) [µM],MIC (Klebsiella pneumoniae) [µM],concentration inhibiting growth of 90% of isolates (Klebsiella pneumoniae) [µM],MIC (Acinetobacter baumannii) [µM],MIC (Pseudomonas aeruginosa) [µM],concentration inhibiting growth of 90% of isolates (Pseudomonas aeruginosa) [µM],MIC (E. cloacae [1]) [µM],concentration inhibiting growth of 90% of isolates (E. cloacae [1]) [µM],MBEC50 [2] [µM],MBEC50 [3] [µM],MBEC50 [4] [µM],MBEC50 [5] [µM],MBEC50 (E. cloacae biofilm) [µM],IC50 (human A549 cells) [µM],concentration with antibacterial activity against all 6 species (ESKAPE pathogens) [µM],fold increase in MIC after serial passage (S. aureus),survival of infected mice over 5 days [7],also measured
(S)-1-(4-((S)-3-(4-cyclohexylbutyl)-2-iminoimidazolidin-4-yl)butyl)-4-(cyclohexylmethyl)-3-hexylimidazolidin-2-imine [compound 16],1.6,1.6,1.6,5,1.6,1.6,5,1.6,2,7.6,6.3,14,34,13,> 225,< 2,16 fold,only a single mouse succumbing to infection after the first day,"A549 recovery (human A549 cells; at concentrations up to 100 μM): > 65%; fold increase in MIC after serial passage (K. pneumoniae): ≤ 8 fold; fold increase in MIC after serial passage (A. baumannii): ≤ 8 fold; fold increase in MIC after serial passage (E. cloacae [6]): ≤ 8 fold; fold increase in MIC after serial passage (P. aeruginosa): 8 fold; effect on growth, compound in combination with reserpine [8]: complete inhibition of growth"
benzalkonium chloride [reference compound],,,,,,,,,,,,,,,,,,,"cells recovered / surviving exposure (optical density relative to start) (MRSA cells; MRSA, 2 h, 2.0% SDS, 0.001% benzalkonium chloride, 0.001% benzethonium chloride): 29%"
"CCCC[C@H]1CN(CCCC[C@H]2CNC(=N)N2CCc2cccc(C(F)(F)F)c2)C(=N)N1CCCCC1CCCCC1 [compound 2, (S)-4-butyl-3-(4-cyclohexylbutyl)-1-(4-((S)-2-imino-3-(3-(trifluoromethyl)phenethyl)imidazolidin-4-yl)butyl)imidazolidin-2-imine]",,,,5,,,5,,5,,,,,,,< 2,two-fold,only a single mouse succumbing to infection after the first day,
Triton-X100,,,,,,,,,,,,,,,,,,,"hemolysis, positive control [9]: 100%"
"COC(=O)[C@H]1[C@H]2C[C@@H]3c4[nH]c5cc(OC)ccc5c4CCN3C[C@H]2C[C@@H](OC(=O)c2cc(OC)c(OC)c(OC)c2)[C@@H]1OC [reserpine, reference compound]",,,,,,,,,,,,,,,,,,,"effect on growth, reserpine alone ([10]; 100 μM of reserpine): no effect"
(S)-4-butyl-3-hexyl-1-(4-((S)-2-imino-3-(3-(trifluoromethyl)phenethyl)imidazolidin-4-yl)butyl)imidazolidin-2-imine [compound 1],1.6,1.6,1.6,10,1.6,1.6,10,1.6,10,14,7.0,15,20,13,164,< 2,two-fold,all mice survived,"MBEC50 [11]: 39 µM; effect on growth, compound combined with reserpine ([10]; 2 μM compound + 100 μM reserpine): strongly inhibited growth; effect on growth, compound alone ([10]; 2 μM of compound, no reserpine): no effect"
(S)-4-(cyclohexylmethyl)-3-hexyl-1-(4-((S)-2-imino-3-(3-(trifluoromethyl)phenethyl)imidazolidin-4-yl)butyl)imidazolidin-2-imine [compound 7],1.5,1.5,1.5,5,1.5,1.5,10,1.5,2,4.4,4.8,13,46,15,66,< 2,four-fold,1 mouse lost on each of days 2 and 4,"MBEC50 [11]: 26 µM; A549 recovery (human A549 cells; above 45 μM, at concentrations up to 225 μM): ≥ 33%; A549 recovery (human A549 cells; at 45 μM): > 60%; fold increase in MIC after serial passage (K. pneumoniae): ≤ 8 fold; fold increase in MIC after serial passage (A. baumannii): ≤ 8 fold; fold increase in MIC after serial passage (E. cloacae [6]): ≤ 8 fold; effect on growth, compound in combination with reserpine (E. cloacae strain 1446): complete inhibition of growth"
"lysostaphin: a S. aureus specific lytic agent, positive control",,,,,,,,,,,,,,,,,,,"lysis of MRSA cells (MRSA cells; within 10 minutes of exposure, 4 μM lysostaphin): > 50%"
